Test results as given in patent US9232799B2, “N-[(het)arylethyl)] pyrazole(thio)carboxamides and their heterosubstituted analogues” (BAYER INTELLECTUAL PROPERTY GMBH, priority 2010, dated 2016).

Key:
aflatoxines production = assay: microbe, parasite or virus in culture; type: cell-based, Aspergillus parasiticus; conditions: 50 μM
[1] = logP by HPLC on reversed-phase column (C 18), EEC Directive 79/831 Annex V.A8; type: physicochemical
Protocol: In table 1, the logP values were determined in accordance with EEC Directive 79/831 Annex V.A8 by HPLC (High Performance Liquid Chromatography) on a reversed-phase column (C 18), using the method described below: Temperature: 40° C.; […]

Pyrenophora teres = assay: In vivo preventive test on Pyrenophora teres (barley); conditions: 500 ppm of active ingredient, evaluated 7-9 days after inoculation
Excerpt: One day after this treatment, the plants are inoculated with an aqueous spore suspension of Pyrenophora teres.

Alternaria solani = assay: In vivo preventive test on Alternaria solani (tomato); conditions: 500 ppm of active ingredient, evaluated 7 days after inoculation
Excerpt: One day after this treatment, the plants are inoculated with an aqueous spore suspension of Alternaria solani.

Fusarium graminearum = assay: microbe, parasite or virus in culture; type: cell-based; conditions: 50 μM

SMILES	% Inhibition of Aflatoxin at 50 μM (aflatoxines production)	logP [1]	Efficacy (Pyrenophora teres)	Efficacy (Alternaria solani)	% Inhibition of fungal growth at 50 μM (Fusarium graminearum)
CN(CCc1ccccc1)C(=O)c1c(C(F)F)nn(C)c1F [Example 4]	100%	2.43	95%	100%	91%
CCN(C(=O)c1c(C(F)F)nn(C)c1F)C(C)C(=O)c1ccccc1 (stereo not shown) [Example 17]	100%	2.59		80%	83%
CN(CC(=O)c1ccc(Cl)cc1)C(=O)c1c(C(F)F)nn(C)c1F [Example 61]	100%	2.53		90%	84%
Cn1nc(C(F)F)c(C(=O)NCCc2ccccc2C(F)(F)F)c1Cl [Example 122]		3.11	94%	95%	
COc1ccc(CCN(C)C(=O)c2c(C(F)F)nn(C)c2F)cc1OC [Example 129]	90%	2.04	90%		70%
CN(CCc1ccc(C(C)(C)C)cc1)C(=O)c1c(C(F)F)nn(C)c1Cl [Example 139]		3.96	90%	90%	
Cn1nc(C(F)F)c(C(=O)NCCc2ccccc2Oc2ccccc2)c1F [Example 140]		3.48	95%	100%	
Cn1nc(C(F)F)c(C(=O)NC(C)(C)Cc2cccc(Oc3ccccc3)c2)c1F [Example 142]		4.09	78%	90%	
Cn1nc(C(F)F)c(C(=O)NCCc2cccc(Oc3ccccc3)c2)c1F [Example 143]		3.37	89%	95%	
Cn1nc(C(F)F)c(C(=O)NCCc2ccc(Oc3ccccc3)cc2)c1Cl [Example 155]		3.60	100%	95%	
C#CCOc1cc(C(OC)C(C)NC(=O)c2c(C(F)F)nn(C)c2Cl)ccc1OC (stereo not shown) [Example 159]	98%	2.76			77%
Cn1nc(C(F)F)c(C(=O)NCCc2ccsc2Br)c1F [Example 166]	100%	2.64			97%
Cc1scc(CCNC(=O)c2c(C(F)F)nn(C)c2Cl)c1C [Example 168]	100%	3.02			97%
Cn1nc(C(F)F)c(C(=O)NCCc2csc3c2CCCC3)c1F [Example 170]	100%	3.31			95%
CC(Cc1ccco1)NC(=O)c1c(C(F)F)nn(C)c1F (stereo not shown) [Example 173]	100%	2.20			83%
CC(Cc1ccco1)NC(=O)c1c(C(F)F)nn(C)c1Cl (stereo not shown) [Example 174]	89%	2.37			76%
COCCN(CCc1ccncc1)C(=O)c1c(C(F)F)nn(C)c1Cl [Example 202]	99%	1.69			81%
CC(CN(C)C(=O)c1c(C(F)F)nn(C)c1Cl)c1ccncc1 (stereo not shown) [Example 207]	99%	1.74			37%
Cn1nc(C(F)F)c(C(=O)NC2CCCCC2c2ccccc2)c1F (stereo not shown) [Example 212]	100%	3.13		89%	99%
Cn1nc(C(F)F)c(C(=O)NC2CC2c2ccc(F)cc2)c1F (stereo not shown) [Example 220]	100%	2.59	100%		81%
Cn1nc(C(F)F)c(C(=S)NC[Si](C)(C)c2ccccc2Cl)c1F [Example 234]		4.11	100%	70%	
